Values of other authors in patent US20220000967A1, “SYNTHETIC PEPTIDES INDUCING IMMUNOGENIC CELL DEATH” (SORBONNE UNIVERSITE, priority 2018, published 2022).

Tested on: murine B78 melanoma cells
Conditions: melphalan killed B78 cells injected, re-challenged 10 days later with B78 viable cells; cited from earlier work

N[C@@H](Cc1ccc(N(CCCl)CCCl)cc1)C(=O)O [melphalan]
mice without tumor: 40%
